Source: US10307418B2, “Azole pharmaceutical formulations for parenteral administration and methods for preparing and using the same as treatment of diseases sensitive to azole compounds” (Platform Brightworks Two, Ltd., priority 2010, dated 2019)
Values after ≈ are worked out from the molar mass of the structure shown. Where two headings read alike, the source gives them in different places.

Columns and labels:
[1] = Stability of ITZA/POSA in solvent vehicles (HPLC); type: physicochemical
[2] = mouse, in vivo, 5 mg/kg
Description: Swiss Webster mice were used for pharmacokinetic studies of ITZA and its analogs. The dilation of the vein was accomplished by warming up the mice using a heat lamp. […] Mice were allowed to recover and blood samples were obtained through cardiac puncture under general anesthesia with Isoflurane/oxygen by vaporizer at various time points. Plasma was obtained by centrifugation of blood sample at 3,200 rpm for 5 min. at 4° C. Plasma proteins were precipitated by adding acetonitrile (twice the volume of plasma). The mixture was vortexed for 30 seconds and centrifuged for 5 min. at 14,000 rpm. The supernatant was saved and was injected into the HPLC to determine the respective drug concentrations.
Unless specified, the analogous experiments were performed using POSA as an alternative to ITZA; Swiss Webster mice of both sexes with a body weight of 25-30 g were used for the in vivo pharmacology experiments (Harlan-Sprague-Dawley, Houston, Tex.). The animals were allowed a minimum of 7 days after arrival to accommodate to the new environment and allowed free access to commercial feed and tap water prior to and during the experimentation period. The animals were housed in an Association for the Assessment and Accreditation of Laboratory Animal Care International (AAALAC)-approved facility that meets the requirements of the USDA, NIH, and DHHS.
The ITZA dose of 5 mg/kg BW was determined to be a suitable test dose that could be administered to the mice as a slow (3-4 min) IV bolus injection without requiring sedation, but could be performed with only minimal physical restraint of the animals in a standard funnel-type cage.
The ITZA was formulated in the H3 solvent system described above as the preferred solvent to a stock concentration of 4-5 mg/mL and then diluted with NS (ratio 1:1) so the intended dose (5.0 mg/kg BW) could be injected in a tail vein in a total volume of approximately 100 μL. […] No sedative premedication was used for the mice in this experiment to avoid the possible induction of microsomal liver enzymes that could modify ITZA metabolism. Thus, the animals were unanesthetized, being only physically restrained during and immediately following the drug injection.
Blood samples (0.5-1.0 mL) were drawn through cardiac puncture into heparinized tubes at selected time points prior to the drug infusion (“blank”), and from 5 min to 1 hour after drug injection for determination of ITZA concentrations, and for 5 min to about 7 hrs in the POSA experiment. The mice were exposed to 2% -4% isoflurane for general anesthesia. Blood samples were obtained through cardiac puncture and immediately deposited in heparinized microcentrifuge tubes.

[3] = system: Aspergillus fumigatus (ATCC strain 90906); assay: Mold susceptibility test, MIC (CLSI M38A); type: cell-based
Description: (§1) Two hyaline molds were tested with a standard read out at 48 hrs:
(§2) Tested drug range: 75 μg/mL to 0.07 μg/mL
To further determine the antifungal activity of the compounds in the new formulation systems we investigated the efficacy of the various agents against additional strains of mucor and Aspergillus (9/-16-9/20/2010) (The Rhizomucor was a clinical isolate from a patient isolate) and the Aspergillus fumigatus (ATCC strain 90906) used was a repeat from the previously described experiment. Again, the susceptibility tests were set-up using the standardized test method (CLSI M38A). The used drugs were provided in the described H3 final use-formulation that has been previously described. All drugs were diluted in RPMI-Mops medium (YeastOne, Sensititer Lot 151416SA, expiration date January 2011).
As before two different molds were tested with a standard read out at 48 hr: • Drug dilution range 75 μg/mL to 0.07 μg/mL. • Aspergillus fumigatus (ATCC strain 90906) Zygomycete (Clinical Lab isolate, MDACC) […]

[4] = system: Aspergillus fumigatus (Clinical Lab isolate); assay: Mold susceptibility test, MIC; type: cell-based; conditions: tested range 75 μg/mL to 0.07 μg/mL, read out at 48 hrs
Description: as §1, §2
Briefly, susceptibility tests were set-up using a standardized methodology (CLSI […] standard). Drugs were diluted into RPMI-Mops medium (Yeast One Broth (Sensititer, product Y3462, Trek Diagnostic Systems, Cleveland, Ohio) Sensititer Lot number 151416SA-expiration date 2011-01). Two different strains of yeast were tested, the standardized evaluation/read out was performed at 24 hours after the start of each culture. The tests were repeated twice and all MIC (minimum inhibitory concentration) values are reported as an average of the three experiments.

In the case of `CCC(C)n1ncn(-c2ccc(N3CCN(c4ccc(OCC5COC(Cn6cncn6)(c6ccc(Cl)cc6Cl)O5)cc4)CC3)cc2)c1=O` (stereo not drawn) [ITZA, itraconazole], the “Stability (% remaining)” value ([1]; 2-6 mg/mL in composite (prototype) solvent vehicles, more than three days or 72 hours at RT) is reported as “more than 90%”, the Stability (%) ([1]; H3D, 4 mg/mL, 0 hr) is reported as 100% and the Stability (%) ([1]; H3D, 4 mg/mL, 2 hr) is reported as 102%. For the same compound, the Stability (%) ([1]; H3D, 4 mg/mL, 4 hr) was 101%, the Stability (%) ([1]; H3D, 4 mg/mL, 8 hr) was 99% and the Stability (%) ([1]; H3D, 4 mg/mL, 24 hr) was 97%. It also gave a stability of ITZA ([1]; H3D, day 0) of 100%, a stability of ITZA ([1]; H3D, day 1) of 94% and a stability of ITZA ([1]; H3D, day 2) of 95%. For the same compound, the stability of ITZA ([1]; H3D, day 3) was 93%, the stability of ITZA ([1]; H3D, day 4) was 94% and the stability of ITZA ([1]; H3D, day 5) was 98%. For the same compound, the stability of ITZA ([1]; H3D/5% dex., day 0) was 100%, the stability of ITZA ([1]; H3D/5% dex., day 1) was 100% and the stability of ITZA ([1]; H3D/5% dex., day 2) was 103%. For the same compound, the stability of ITZA ([1]; H3D/5% dex., day 4) was 99%, the stability of ITZA ([1]; H3D/5% dex., day 5) was 93% and the stability of ITZA ([1]; H3D/10% Dex., day 0) was 100%. It also gave a stability of ITZA ([1]; H3D/10% Dex., day 1) of 98%, a stability of ITZA ([1]; H3D/10% Dex., day 2) of 98% and a stability of ITZA ([1]; H3D/10% Dex., day 3) of 102%. It also gave a stability of ITZA ([1]; H3D/10% Dex., day 4) of 99%, a stability of ITZA ([1]; H3D/10% Dex., day 5) of 105% and a stability of ITZA ([1]; H3D/sal., day 0) of 100%. For the same compound, the stability of ITZA ([1]; H3D/sal., day 1) was 107%, the stability of ITZA ([1]; H3D/sal., day 2) was 107% and the stability of ITZA ([1]; H3D/sal., day 3) was 110%. The stability of ITZA ([1]; H3D/sal., day 5) was 90%, the stability of ITZA ([1]; H3G, day 0) was 100% and the stability of ITZA ([1]; H3G, day 1) was 103%. The stability of ITZA ([1]; H3G, day 2) was 100%, the stability of ITZA ([1]; H3G, day 3) was 89% and the stability of ITZA ([1]; H3G, day 4) was 103%. It also gave a stability of ITZA ([1]; H3G, day 5) of 106%, a stability of ITZA ([1]; H3G/5% Dex., day 0) of 100% and a stability of ITZA ([1]; H3G/5% Dex., day 1) of 102%. The stability of ITZA ([1]; H3G/5% Dex., day 2) was 109%, the stability of ITZA ([1]; H3G/5% Dex., day 3) was 94% and the stability of ITZA ([1]; H3G/5% Dex., day 4) was 99%. It also gave a stability of ITZA ([1]; H3G/5% Dex., day 5) of 42%, a stability of ITZA ([1]; H3G/10% dex., day 0) of 100% and a stability of ITZA ([1]; H3G/10% dex., day 2) of 102%. For the same compound, the stability of ITZA ([1]; H3G/10% dex., day 3) was 98%, the stability of ITZA ([1]; H3G/10% dex., day 4) was 107% and the stability of ITZA ([1]; H3G/10% dex., day 5) was 31%. It also gave a stability of ITZA ([1]; H3G/sal., day 0) of 100%, a stability of ITZA ([1]; H3G/sal., day 1) of 95% and a stability of ITZA ([1]; H3G/sal., day 2) of 94%. For the same compound, the stability of ITZA ([1]; H3G/sal., day 3) was 80%, the stability of ITZA ([1]; H3G/sal., day 4) was 70% and the stability of ITZA ([1]; H3G/sal., day 5) was 38%. The Stability (%) ([1]; Solvent H3G, 0 hr) was 100%, the Stability (%) ([1]; Solvent H3G, 2 hr) was 108% and the Stability (%) ([1]; Solvent H3G, 4 hr) was 104%. The Stability (%) ([1]; Solvent H3G, 6 hr) was 101%, the Stability (%) ([1]; Solvent H3G, 8 hr) was 98% and the Stability (%) ([1]; Solvent H3G, 24 hr) was 103%. The “Stability (%)” value ([1]; parent solvent H3, approximately 4 mg/mL, room temperature, 14 (2 w)) was 83%, the “Stability (%)” value ([1]; parent solvent H3, approximately 4 mg/mL, room temperature, 21 (3 w)) was 79% and the “Stability (%)” value ([1]; parent solvent H3, approximately 4 mg/mL, room temperature, 28 (4 w)) was 75%. The “Stability (%)” value ([1]; parent solvent H3, approximately 4 mg/mL, room temperature, 35 (5 w)) was 77%, the “Stability (%)” value ([1]; parent solvent H3, approximately 4 mg/mL, room temperature, 49 (7 w)) was 79% and the “Stability (%)” value ([1]; parent solvent H3, approximately 4 mg/mL, room temperature, 63 (9 w)) was 75%. For the same compound, the “Stability (%)” value ([1]; parent solvent H3, approximately 4 mg/mL, room temperature, 24 hrs) was 99%, the “Stability (%)” value ([1]; parent solvent H3, approximately 4 mg/mL, room temperature, 72 hrs) was 95% and the “Stability (%)” value ([1]; parent solvent H3, approximately 4 mg/mL, room temperature, 96 hrs) was 88%. For the same compound, the “Stability (%)” value ([1]; parent solvent H3, approximately 4 mg/mL, room temperature, 11 days) was 77%, the “Stability (%)” value ([1]; parent solvent H3, approximately 4 mg/mL, room temperature, time 0) was 100% and the “Stability (%)” value ([1]; solvent H3, approximately 4 mg/mL, 40° C., 3 hr) was 104%. For the same compound, the “Stability (%)” value ([1]; solvent H3, approximately 4 mg/mL, 40° C., 6 hr) was 98%, the “Stability (%)” value ([1]; solvent H3, approximately 4 mg/mL, 40° C., 24 hr) was 92% and the “Stability (%)” value ([1]; solvent H3, approximately 4 mg/mL, 40° C., 30 hr) was 89%. For the same compound, the “Stability (%)” value ([1]; solvent H3, approximately 4 mg/mL, 40° C., 48 hr) was 84%, the “Stability (%)” value ([1]; solvent H3, approximately 4 mg/mL, 40° C., 54 hr) was 79% and the “Stability (%)” value ([1]; solvent H3, approximately 4 mg/mL, 40° C., 78 hr) was 80%. The “Stability (%)” value ([1]; solvent H3, approximately 4 mg/mL, 40° C., 4 days) was 78%, the “Stability (%)” value ([1]; solvent H3, approximately 4 mg/mL, 40° C., 7 days) was 70% and the “Stability (%)” value ([1]; solvent H3, approximately 4 mg/mL, 40° C., 8 days) was 70%. The “Stability (%)” value ([1]; solvent H3, approximately 4 mg/mL, 40° C., 9 days) was 58%, the “Stability (%)” value ([1]; solvent H3, approximately 4 mg/mL, 40° C., 14 days) was 56% and the “Stability (%)” value ([1]; solvent H3, approximately 4 mg/mL, 40° C., 16 days) was 55%. For the same compound, the “Stability (%)” value ([1]; solvent H3, approximately 4 mg/mL, 40° C., 18 days) was 54%, the “Stability (%)” value ([1]; solvent H3, approximately 4 mg/mL, 40° C., 21 days) was 45% and the “Stability (%)” value ([1]; solvent H3, approximately 4 mg/mL, 40° C., 25 days) was 37%. For the same compound, the “Stability (%)” value ([1]; solvent H3, approximately 4 mg/mL, 40° C., 28 days) was 30%, the “Stability (%)” value ([1]; solvent H3, approximately 4 mg/mL, 40° C., 32 days) was 24% and the “Stability (%)” value ([1]; solvent H3/normal saline (1:1), approximately 2.0 mg/mL, RT, 0 hrs) was 100%. The “Stability (%)” value ([1]; solvent H3/normal saline (1:1), approximately 2.0 mg/mL, RT, 2 hrs) was 97%, the “Stability (%)” value ([1]; solvent H3/normal saline (1:1), approximately 2.0 mg/mL, RT, 4 hrs) was 97% and the “Stability (%)” value ([1]; solvent H3/normal saline (1:1), approximately 2.0 mg/mL, RT, 8 hrs) was 102%. The “Stability (%)” value ([1]; solvent H3/normal saline (1:1), approximately 2.0 mg/mL, RT, 14 hrs) was 109%, the “Stability (%)” value ([1]; solvent H3/normal saline (1:1), approximately 2.0 mg/mL, RT, 24 hrs) was 93% and the “tolerability of IV injection (in words)” value [2] was “well accepted”. The MIC ([3]; Aspergillus fumigatus, ATCC90906, 48 h, tested range 75 μg/mL to 0.07 μg/mL, read out at 48 hrs, first experiment, read-out: MIC) was 1.2 µg/mL (≈ 1.7 µM), the MIC ([3]; extended mold testing (repeat), H3 final use-formulation, range 75 μg/mL to 0.07 μg/mL, 48 hr) was 1.2 µg/mL (≈ 1.7 µM) and the MIC ([3]; extended mold testing (repeat), H3 final use-formulation, range 75 μg/mL to 0.07 μg/mL, 48 hr, listed as ITZA*) was 0.3 µg/mL (≈ 0.425 µM). It also gave an MIC ([3]; tested range 75 μg/mL to 0.07 μg/mL, read out at 48 hrs, first experiment) of 0.6 µg/mL (≈ 0.85 µM), an MIC ([4]; Aspergillus fumigatus, 48 h, read-out: MIC) of 0.6 µg/mL (≈ 0.85 µM) and an MIC [4] of 0.3 µg/mL (≈ 0.425 µM).
